pEC50, pIC50: −log10 of the molar value. Read-outs that look alike come from different tables or passages of the source.
Assays:
[1] = biological target: T1, Keap1 Kelch domain (321-609) / TAMRA-labeled 16mer NRF2 peptide (ETGE motif) (Homo sapiens, UniProt Q14145); test: NRF2-Keap1 FP Assay (Keap1 Kelch fluorescence polarization); format: binding; settings: 20 nM Keap1 (321-609), 8 nM Tamra labeled peptide
T1 construct: the Kelch domain (321-609) of Keap1 is used
Source text: One model for the NRF2-Keap1 interaction is through two binding sites in the Neh2 domain on NRF2. The two sites are referred to as the DLG binding motif (latch domain, uM affinity) and the ETGE binding motif (hinge domain, nM affinity). The Keap1 protein consists of an N-terminal region (NTR), a broad complex, tramtrack, and brick a′ brac domain (BTB), an intervening region (IVR), a double glycine repeat domain (DGR or Kelch), and a C-terminal region. The DLG and ETGE motifs of NRF2's Neh2 domain bind to the Kelch domain of Keap1 at different affinities. In the Keap1 Kelch fluorescence polarization (FP) assay, a TAMRA-labeled 16mer peptide (AFFAQLQLDEETGEFL) containing the ETGE motif of NRF2 and the Kelch domain (321-609) of Keap1 is used. The assay determines if a compound interferes with the binding between Keap1 […] and the TAMRA-labeled peptide. Binding of TAMRA-labeled NRF2 peptide to Keap1 (321-609) results in a high FP signal. If a compound interferes with the binding between the peptide and the protein, it will cause the assay signal to decrease. Thus, assay signal is inversely proportional to binding inhibition.
100 nl of 100× compound dose response curves (serial 3-fold dilutions) in DMSO are stamped using an Echo liquid handling system (Labcyte) into 384-well low volume black assay plates (Greiner, #784076), with DMSO in columns 6 and 18. The top concentration of compound is located in columns 1 and 13. Keap1 (321-609) is diluted to 40 nM (2×) in 1× assay buffer (50 mM Tris, pH 8.0, 100 mM NaCl, 5 mM MgCl2, 1 mM DTT, 2 mM CHAPS, and 0.005% BSA) and 5 ul is added using a Multidrop Combi (Thermo Electron Corporation) equipped with a metal tip dispenser to all wells of the compound plate, except column 18. Column 18 receives only 5 ul of assay buffer. Immediately, 5 uL of 16 nM (2×) of Tamra labeled peptide (AFFAQLQLDEETGEFL, 21st Century Biochemicals) is added to all wells of the plate. The plates are spun at 500 rpm for 1 min, incubated for 1 hr at room temperature, and read on an Analyst GT (Molecular Devices) equipped with excitation (530/25 nm) and emission (580/10 nm) filters designed for Tamra probes. A 561 nm dichroic mirror is also used in the Analyst. The final assay concentrations of Keap1 (321-609) and Tamra labeled peptide are 20 nM and 8 nM, respectively. Fluorescence measurements, represented as mP, are used in the transformation of the data. Compound activity is calculated based on percent inhibition, normalized against controls in the assay (Control 1 contains the Tamra peptide and Keap1 (321-609) together (0% response) and control 2 contains the Tamra peptide alone (100% response)). Data analysis is handled using the software package Abase XE (Surrey, United Kingdom. The % inhibition values are calculated by the equation: 100−(100*((compound response−average control 2)/(average control 1−average control2))). For calculation of pIC50s, Abase XE uses a four parameter equation. pIC50 is the negative log of the IC50.

[2] = test system: NQO1 specific enzyme activity in BEAS-2B cells (marker for NRF2 activation); test: BEAS-2B NQO1 MTT Assay; format: cell-based; settings: Homo sapiens, compound incubated 48 hours, read-out: EC50 (NQO1 specific enzyme activity induction)
Source text: BEAS-2B NQO1 MTT Assay NAD(P)H:quinone oxidoreductase 1 (NQO1), also called DT diaphorase, is a homodimeric FAD-containing enzyme that catalyzes obligatory NAD(P)H-dependent two-electron reductions of quinones and protects cells against the toxic and neoplastic effects of free radicals and reactive oxygen species arising from one-electron reductions. The transcription of NQO1 is finely regulated by NRF2, and thus NQO1 activity is a good marker for NRF2 activation. On day one, frozen BEAS-2B cells (ATCC) are thawed in a water bath, counted, and re-suspended at a concentration of 250,000 cells/mL. Fifty microliters of cells are plated in 384 well black clear-bottomed plates. Plates are incubated at 37° C., 5% CO2 overnight. On day two, plates are centrifuged and 50 nL of compound or controls are added to the cells. Plates are then incubated at 37° C., 5% CO2 for 48 hours. On day four, medium is aspirated from the plate and crude cell lysates are made by adding 13 uL of 1× Cell Signaling Technologies lysis buffer with 1 Complete, Mini, EDTA-free Protease Inhibitor Tablet (Roche) for each 10 mL of lysis buffer. After lysis plates are incubated for 20 minutes at room temperature. Two microliters of lysate are removed for use in Cell Titer Glo assay (Promega) and MTT cocktail is prepared (Prochaska et. al. 1998) for measurement of NQO1 activity. Fifty microliters of MTT cocktail is added to each well, plate is centrifuged, and analyzed on an Envision plate reader (Perkin Elmer) using Absorbance 570 nm label for 30 minutes. Product formation is measured kinetically and the pEC50 of NQO1 specific activity induction is calculated by plotting the change in absorbance (Delta OD/min) versus the log of compound concentration followed by 3-parameter fitting. pEC50 is the negative log of the EC50.

[3] = biological target: T2, full length Keap1 protein / full length NRF2 protein (Homo sapiens, UniProt Q14145); test: NRF2-Keap1 TR-FRET Low Protein Assay; format: binding; settings: 1.25 nM Keap1 FlagHis and 2.5 nM biotin-NRF2 added
T2 construct: full length NRF2 protein and full length Keap1 protein (Keap1 exists a dimer) are used; His
T2 sequence (Q14145 whole entry): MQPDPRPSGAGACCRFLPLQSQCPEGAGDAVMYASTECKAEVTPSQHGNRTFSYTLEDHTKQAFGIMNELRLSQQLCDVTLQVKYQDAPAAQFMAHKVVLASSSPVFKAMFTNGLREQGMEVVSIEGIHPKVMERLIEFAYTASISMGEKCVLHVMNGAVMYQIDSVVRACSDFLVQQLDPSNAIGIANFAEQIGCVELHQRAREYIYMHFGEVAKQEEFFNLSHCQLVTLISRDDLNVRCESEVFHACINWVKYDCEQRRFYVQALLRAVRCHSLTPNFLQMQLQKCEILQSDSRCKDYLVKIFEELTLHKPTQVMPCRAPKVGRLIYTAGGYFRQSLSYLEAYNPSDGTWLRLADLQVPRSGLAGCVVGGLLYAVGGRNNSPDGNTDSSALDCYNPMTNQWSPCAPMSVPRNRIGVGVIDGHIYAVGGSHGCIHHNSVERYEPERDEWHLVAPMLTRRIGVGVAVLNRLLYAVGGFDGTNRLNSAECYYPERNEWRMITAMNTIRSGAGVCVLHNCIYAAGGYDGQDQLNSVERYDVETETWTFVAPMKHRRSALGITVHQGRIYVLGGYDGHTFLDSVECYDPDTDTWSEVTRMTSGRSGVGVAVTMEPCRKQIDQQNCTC
Source text: NRF2-Keap1 TR-FRET Low Protein Assay In the NRF2-Keap1 TR-FRET (time-resolved fluorescence resonance energy transfer) low protein assay, full length NRF2 protein and full length Keap1 protein (Keap1 exists a dimer) are used. The assay detects a compound's ability to displace the binding of Keap1 […] with biotinylated Avi-NRF2 protein. Biotin-NRF2 binds to streptavidin-europium (a component of the detection mix) and Keap1 […] is recognized by anti-Flag APC (allophycocyanin) antibody (also a component of the detection mix). If binding occurs between the two proteins, there will be an energy transfer from the Eu+3 (donor) at 615 nm to the APC (acceptor) at 665 nm. A potential NRF2 inhibitor will cause a reduction in the TR-FRET signal by interfering with the binding of Keap1 to NRF2. Ten nanoliters of 100× compound dose response curves (serial 3-fold dilutions) in DMSO are stamped using an Echo liquid handling system (Labcyte) into 384-well, low volume, black assay plates (Greiner, #784076), with DMSO in columns 6 and 18. An additional 90 nl DMSO is added to each well, to bring the total volume to 100 nl per well. The top concentration of compound is located in columns 1 and 13, with the serial dilutions going across the row. All reagents are diluted in assay buffer (50 mM Tris, pH 8.0, 5 mM MgCl2, 100 mM NaCl, 0.005% BSA, 1 mM DTT, and 2 mM CHAPS. The BSA, DTT, and CHAPS are added to the assay buffer on the day of assay. […] Wells in column 18 receive 5 ul of assay buffer instead. Plates are centrifuged at 500 rpm for 1 minute, covered with a plate lid, and incubated at 37° C. for 2.25 hours. Plates are then removed from the incubator and allowed to cool to RT for 15 minutes. Five microliters of 2.5 nM biotin-NRF2 protein is then added to all wells of the plates and the plates are spun at 500 rpm for 1 minute, followed by incubating at 4° C. for 1.25 hours. The plates are then allowed to warm to RT for 15 minutes, followed by the addition of 10 ul of detection mix (1 nM Streptavidin Eu+W1024 and 5 ug/ml mouse anti-DYKDDDDK IgG conjugated to SureLight APC antibody; both from Columbia Biosciences) to all wells. Plates are spun at 500 rpm for 1 minute, incubated for 1 hour at RT, and read on an Envision plate reader using a 320 nm excitation filter and 615 nm and 665 nm emission filters. […] Data analysis is handled using the software package Abase XE (Surrey, United Kingdom). […] For calculation of pIC50s, Abase XE uses a four parameter equation. pIC50 is the negative log of the IC50.

T1 sequence (Q14145 321-609): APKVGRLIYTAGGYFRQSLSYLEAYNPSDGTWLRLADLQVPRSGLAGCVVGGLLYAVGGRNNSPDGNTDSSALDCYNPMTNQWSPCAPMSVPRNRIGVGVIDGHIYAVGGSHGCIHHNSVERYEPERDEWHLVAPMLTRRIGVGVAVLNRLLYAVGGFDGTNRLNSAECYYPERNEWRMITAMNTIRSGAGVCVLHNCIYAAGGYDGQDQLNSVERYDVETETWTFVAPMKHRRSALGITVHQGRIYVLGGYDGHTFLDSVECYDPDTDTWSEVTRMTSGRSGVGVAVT

SMILES | pIC50 [1] | pEC50 [2] | pIC50 [3] | pEC50 ([2]; BEAS-2B, 48 h)
C[C@H](Oc1cccc(-c2cccc(-n3ncc(C(=O)O)c3[C@@H]3C[C@H]3c3cn(C4CNC4)nn3)c2)c1)C1CCCCC1 (racemic) [Example 85, 5-(trans-2-(1-(Azetidin-3-yl)-1H-1,2,3-triazol-4-yl)cyclopropyl)-1-(3′-((S)-1-cyclohexylethoxy)-[1,1′-biphenyl]-3-yl)-1H-pyrazole-4-carboxylic Acid] | 7.00 to 8.00 | 6.00 to 7.00 | 7.00 to 8.00 | –
C[C@H](Oc1cccc(-c2cccc(-n3ncc(C(=O)O)c3[C@@H]3C[C@H]3c3cn(C4CCNCC4)nn3)c2)c1)C1CCCCC1 (racemic) [Example 86, 1-(3′-((S)-1-cyclohexylethoxy)-[1,1′-biphenyl]-3-yl)-5-(trans-2-(1-(piperidin-4-yl)-1H-1,2,3-triazol-4-yl)cyclopropyl)-1H-pyrazole-4-carboxylic Acid] | 7.00 to 8.00 | 6.00 to 7.00 | 7.00 to 8.00 | –
C[C@H](Oc1cccc(-c2cccc(-n3ncc(C(=O)O)c3[C@@H]3C[C@H]3c3cn(Cc4ccccc4)nn3)c2)c1)C1CCCCC1 (racemic) [Example 87, 5-(trans-2-(1-Benzyl-1H-1,2,3-triazol-4-yl)cyclopropyl)-1-(3′-((S)-1-cyclohexylethoxy)-[1,1′-biphenyl]-3-yl)-1H-pyrazole-4-carboxylic Acid] | 6.00 to 7.00 | 7.00 to 8.00 | 6.00 to 7.00 | –
C[C@H](Oc1cccc(-c2cccc(-n3ncc(C(=O)O)c3[C@@H]3C[C@H]3c3cn(CCN(C)C)nn3)c2)c1)C1CCCCC1 (racemic) [Example 88, 1-(3′-((S)-1-Cyclohexylethoxy)-[1,1′-biphenyl]-3-yl)-5-(trans-2-(1-(2-(dimethylamino)ethyl)-1H-1,2,3-triazol-4-yl)cyclopropyl)-1H-pyrazole-4-carboxylic acid] | 7.00 to 8.00 | 7.00 to 8.00 | 7.00 to 8.00 | –
C[C@H](Oc1cccc(-c2cccc(-n3ncc(C(=O)O)c3[C@@H]3C[C@H]3c3cn(CCO)nn3)c2)c1)C1CCCCC1 (racemic) [Example 90, 1-(3′-((S)-1-Cyclohexylethoxy)-[1,1′-biphenyl]-3-yl)-5-(trans-2-(1-(2-hydroxyethyl)-1H-1,2,3-triazol-4-yl)cyclopropyl)-1H-pyrazole-4-carboxylic acid] | 7.00 to 8.00 | 7.00 to 8.00 | > 8.00 | –
CC(C)n1cc([C@@H]2C[C@H]2c2c(C(=O)O)cnn2-c2cccc(-c3cccc(O[C@@H](C)C4CCCCC4)c3)c2)nn1 (racemic) [Example 91, 1-(3′-((S)-1-Cyclohexylethoxy)-[1,1′-biphenyl]-3-yl)-5-(trans-2-(1-isopropyl-1H-1,2,3-triazol-4-yl)cyclopropyl)-1H-pyrazole-4-carboxylic acid] | 7.00 to 8.00 | 8.00 to 9.00 | 7.00 to 8.00 | –
C[C@H](Oc1cccc(-c2cccc(-n3ncc(C(=O)O)c3[C@@H]3C[C@H]3c3cn(-c4ccccc4)nn3)c2)c1)C1CCCCC1 (racemic) [Example 92] | 7.00 to 8.00 | 8.00 to 9.00 | 6.00 to 7.00 | –
C[C@H](Oc1cccc(-c2cccc(-n3ncc(C(=O)O)c3[C@@H]3C[C@H]3c3cn(C4CN(C)C4)nn3)c2)c1)C1CCCCC1 (racemic) [Example 94, 1-(3′-((S)-1-Cyclohexylethoxy)-[1,1′-biphenyl]-3-yl)-5-(trans-2-(1-(1-methylazetidin-3-yl)-1H-1,2,3-triazol-4-yl)cyclopropyl)-1H-pyrazole-4-carboxylic Acid] | 7.00 to 8.00 | 7.00 to 8.00 | 7.00 to 8.00 | –
C[C@H](Oc1cccc(-c2cccc(-n3ncc(C(=O)O)c3[C@H]3C[C@H]3c3cn(C)nn3)c2)c1)C1CCCCC1 (racemic) [Example 101, 1-(3′-((S)-1-cyclohexylethoxy)-[1,1′-biphenyl]-3-yl)-5-(cis-2-(1-methyl-1H-1,2,3-triazol-4-yl)cyclopropyl)-1H-pyrazole-4-carboxylic Acid] | < 5.00 | – | 5.00 to 6.00 | 6.00 to 7.00
